Test results reported in patent EP1600504A1, “Control of transglutaminase catalyzed protein modification by selective irreversible transglutaminase inhibitors” (N-Zyme BioTec GmbH, priority 2004, dated 2005).
Peptide text beside a SMILES is read from it. * marks the point of attachment. Cbz = O=C(OCc1ccccc1)*; Acryloyl = C=CC(=O)*; ClAc = O=C(CCl)*

How the values were obtained:
Transglutaminase [1] = test: Transglutaminase-catalysed labelling reaction stopped by inhibitor, SDS-PAGE fluorescence (Beispiel 1); assay type: biochemical; conditions: Zielprotein N,N-Dimethylcasein, stopped after 2, 10 and 20 min, large excess of unbound dye present, transglutaminase only given in an image table
Experimental: (§1) Alle nachfolgend beschriebenen Experimente wurden nach dem gleichen Standardprotokoll durchgeführt. Dabei werden das jeweilige Zielprotein und das farbstofftragende amin- oder glutaminhaltige Substrat in einem geeigneten Puffer vorgelegt und für 5 Min. auf 37°C temperiert. Anschließend wird durch Zugabe von Transglutaminase die Reaktion gestartet. Nach variierenden Inkubationszeiten, durch die jeweils verschiedene Markierungsgrade erreicht werden, wird durch Zugabe eines Inhibitors die Transglutaminase vollständig und irreversibel inaktiviert (Reaktionsabbruch 1). In Kontrollexperimenten wird die Markierungsreaktion durch Abtrennung des ungebundenen, farbstofftragenden Substrates unterbrochen (Reaktionsabbruch 2). Die Abtrennung des ungebundenen Farbstoffes erfolgt unter Normaldruck über eine PD-10-Säule (Amersham Biosciences). Dieses allgemein einsetzbare Verfahren zur schnellen Abtrennung kleiner Moleküle von Makromolekülen wie Proteinen basiert auf dem Prinzip der Gelpermeationschromatographie und kann als das vorteilhafteste Verfahren zur Reaktionskontrolle nach dem Stand der Technik angesehen werden. Andere Verfahren, mit denen die weitere katalytische Markierungsreaktion abgebrochen werden könnte, sind weniger geeignet oder nicht allgemein einsetzbar (z. B. thermische, unspezifische chemische oder affinitätschromatographische Methoden). […]

Transglutaminase [2] = test: Transglutaminase-catalysed labelling reaction stopped by inhibitor, SDS-PAGE fluorescence (Beispiel 3); assay type: biochemical
Experimental: as §1

[3] = molecular target: T1, bakterielle Transglutaminase (Streptomyces mobaraensis, UniProt P81453); test: Labelling of recombinant hIRS1-p30-N-K stopped by inhibitor, SDS-PAGE fluorescence (Beispiel 6); assay type: biochemical
T1 sequence (P81453 77-407): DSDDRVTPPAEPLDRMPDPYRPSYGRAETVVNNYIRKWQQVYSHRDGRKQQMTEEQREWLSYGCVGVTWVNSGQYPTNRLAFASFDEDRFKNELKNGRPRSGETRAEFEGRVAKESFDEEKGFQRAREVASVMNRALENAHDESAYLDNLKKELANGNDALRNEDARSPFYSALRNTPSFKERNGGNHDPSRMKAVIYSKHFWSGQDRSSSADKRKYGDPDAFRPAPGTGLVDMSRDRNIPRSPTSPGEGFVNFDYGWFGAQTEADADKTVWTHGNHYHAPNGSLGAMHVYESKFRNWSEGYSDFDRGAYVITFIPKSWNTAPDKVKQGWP
Experimental: as §1

[4] = molecular target: T2, Meerschweinchenlebertransglutaminase (Cavia cutleri, UniProt P08587); test: Labelling of recombinant hLeptin stopped by inhibitor, RP-HPLC (Beispiel 7); assay type: biochemical, Meerschweinchen
T2 sequence (P08587 2-690 limits assumed): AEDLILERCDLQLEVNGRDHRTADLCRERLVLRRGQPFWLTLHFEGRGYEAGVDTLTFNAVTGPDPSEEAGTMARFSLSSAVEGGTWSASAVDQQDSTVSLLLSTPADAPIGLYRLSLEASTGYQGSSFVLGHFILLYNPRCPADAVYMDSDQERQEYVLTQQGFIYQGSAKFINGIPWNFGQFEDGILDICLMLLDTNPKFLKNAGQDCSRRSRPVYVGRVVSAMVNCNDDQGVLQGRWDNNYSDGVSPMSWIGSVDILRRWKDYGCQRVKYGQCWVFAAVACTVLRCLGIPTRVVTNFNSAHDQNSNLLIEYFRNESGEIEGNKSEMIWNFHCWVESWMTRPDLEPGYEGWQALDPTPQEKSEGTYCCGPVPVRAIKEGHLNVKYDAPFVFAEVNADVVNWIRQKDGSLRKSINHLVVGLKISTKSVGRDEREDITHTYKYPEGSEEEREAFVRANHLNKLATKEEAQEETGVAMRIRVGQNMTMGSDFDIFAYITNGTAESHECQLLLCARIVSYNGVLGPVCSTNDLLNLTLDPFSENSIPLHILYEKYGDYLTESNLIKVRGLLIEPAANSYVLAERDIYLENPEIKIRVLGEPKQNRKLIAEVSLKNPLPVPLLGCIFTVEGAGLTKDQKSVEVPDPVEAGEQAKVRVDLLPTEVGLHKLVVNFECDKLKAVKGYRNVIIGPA
Experimental: as §1, with “Methoden). Die Gelpermeationschromatographie wurde jeweils so schnell wie technisch machbar durchgeführt. Dazu wird auf die vorkonditionierte PD-10-Säule 2,5 ml des Reaktionsvolumens aufgetragen und die Lösung vollständig in das Trennmaterial eingebracht. Anschließend wird das Protein mit 3,5 ml Puffer eluiert. Die niedermolekularen Substanzen verbleiben auf der Säule. Der Gesamtprozess benötigt eine Zeitspanne von mindestens 3 Minuten. Während dieser Zeit kann Transglutaminase weiter auf das Zielprotein einwirken.” for “Methoden).”

[5] = molecular target: T1, bakterielle Transglutaminase; test: Labelling of recombinant Concanavalin A stopped by inhibitor, SDS-PAGE fluorescence (Beispiel 4); assay type: biochemical; conditions: rekombinantes Concanavalin A, stopped after 2 and 5 min, then 30 min RT
Experimental: as §1

Transglutaminase [6] = test: Transglutaminase-catalysed labelling reaction stopped by inhibitor, SDS-PAGE fluorescence (Beispiel 5); assay type: biochemical; conditions: stopped after 2, 5 and 10 min, then 30 min RT
Experimental: as §1

In the case of CC[C@H](C)[C@H](NC(=O)[C@H](CCC(N)=O)NC(=O)[C@H](CCC(=O)C[S+](C)C)NC(=O)OC(C)(C)C)C(=O)N[C@H](C(=O)OC)C(C)C [Boc-SON-Gln-Ile-Val-OH, N^α-tert.-Butyloxycarbonyl-L-(6-dimethylsulfonium-5-oxonorleucinyl)-L-glutaminyl-L-isoleucinyl-L-valinmethylester], the “weitere katalytische Reaktion nach Zugabe des Inhibitors” value (Transglutaminase [1]) was “Eine weitere katalytische Reaktion findet nach Zugabe des Inhibitors nicht statt”.

In the case of [N-]=[N+]=CC(=O)CC[C@H](NC(=O)OCc1ccccc1)C(=O)NCC(=O)O [Z-DON-Gly-OH, N^α-Benzyloxycarbonyl-L-(6-diazo-5-oxonorleucinyl)glycin], the “weiteres Labeling des Zielproteins nach Abtrennung des Inhibitors” value (Transglutaminase [2]; inhibitor removed by gel permeation chromatography, fresh unbound dye added, 30 min RT) was “kein weiteres Labeling des Zielproteins” and the “Markierungsreaktion nach Zugabe des Inhibitors” value (Transglutaminase [2]; stopped after 5 min, sample directly after inhibitor addition) was “wird die Reaktion gestoppt”.

In the case of COC(=O)[C@H](Cc1ccccc1)NC(=O)[C@H](CCC(=O)C=[N+]=[N-])NC(=O)OCc1ccccc1 [Z-DON-Phe-OMe, N^α-Benzyloxycarbonyl-L-(6-diazo-5-oxonorleucinyl)-L-phenylalaninmethylester], the “weitere Modifikation des Zielproteins nach Abtrennung von Farbstoff und Inhibitor” value ([3]; dye and inhibitor removed, kept at RT 30 min, 1 h, 2 h, 4 h) was “keine weitere Modifikation des Zielproteins” and the “Inhibition der Transglutaminase” value ([3]; stopped after 5 min) was “vollständige und irreversible Inhibition der Transglutaminase”.

In the case of C=CC(=O)NCCCC[C@H](NC(=O)OCc1ccccc1)C(=O)NCC(=O)O [Z-Lys(Acryloylamid)-Gly-OH, N^α-Benzyloxycarbonyl-L-lysinyl(ε-acryloyl)glycin] (Cbz-Lys(Acryloyl)-Gly-OH), the “Inaktivierung der Meerschweinchenlebertransglutaminase” value ([4]; stopped after 5 min) was “inaktiviert Meerschweinchenlebertransglutaminase vollständig”, the “weitere Labeling- und Quervernetzungsreaktionen” value ([4]; stopped after 5 min, then 30 and 60 min RT) was “keine weitere Labeling- und Quervernetzungsreaktionen” and the “weitere enzymatische Reaktionen nach Lagerung” value ([4]; storage 10 days at -20°C, then one hour RT) was “keine weiteren enzymatischen Reaktionen mehr”.

For COC(=O)[C@H](Cc1ccccc1)NC(=O)[C@H](CCC(=O)C[S+](C)C)NC(=O)OCc1ccccc1 [Z-SON-Phe-OMe, Nα-Benzyloxycarbonyl-L-(6-dimethylsulfonium-5-oxonorleucinyl)phenylalaninmethylester], the “weitere Markierungsreaktion nach Inhibitorzugabe” value [5] was “keine weitere Markierungsreaktion mehr”.

In the case of O=C(O)CNC(=O)[C@H](COC(=O)CCl)NC(=O)OCc1ccccc1 [Z-Ser(OAcCl)-Gly-OH, N^α-Benzyloxycarbonyl-L-serinyl(O-chloracetyl)glycin] (Cbz-Ser(ClAc)-Gly-OH), the “weitere Markierungsreaktionen nach Inhibitorzugabe” value (Transglutaminase [6]) was “keine weiteren Markierungsreaktionen mehr”.
